From patent US10485800B2, “Mixed lineage kinase inhibitors for HIV/AIDS therapies” (UNIVERSITY OF ROCHESTER, priority 2012, dated 2019)
Read-outs that look alike come from different tables or passages of the source. Each block holds one molecule with its values, some of them ahead of it.

Columns and labels:
[1] = tested on: primary rat hippocampal neurons; settings: primary rat hippocampal and dorsal root ganglion neurons; cited from earlier work
MLK3 [2] = target: MLK3 (Rattus norvegicus (Rat), UniProt Q66HA1); settings: primary rat neurons; cited from earlier work
Sequence of MLK3 (Rattus norvegicus (Rat), UniProt Q66HA1) (Q66HA1 whole entry): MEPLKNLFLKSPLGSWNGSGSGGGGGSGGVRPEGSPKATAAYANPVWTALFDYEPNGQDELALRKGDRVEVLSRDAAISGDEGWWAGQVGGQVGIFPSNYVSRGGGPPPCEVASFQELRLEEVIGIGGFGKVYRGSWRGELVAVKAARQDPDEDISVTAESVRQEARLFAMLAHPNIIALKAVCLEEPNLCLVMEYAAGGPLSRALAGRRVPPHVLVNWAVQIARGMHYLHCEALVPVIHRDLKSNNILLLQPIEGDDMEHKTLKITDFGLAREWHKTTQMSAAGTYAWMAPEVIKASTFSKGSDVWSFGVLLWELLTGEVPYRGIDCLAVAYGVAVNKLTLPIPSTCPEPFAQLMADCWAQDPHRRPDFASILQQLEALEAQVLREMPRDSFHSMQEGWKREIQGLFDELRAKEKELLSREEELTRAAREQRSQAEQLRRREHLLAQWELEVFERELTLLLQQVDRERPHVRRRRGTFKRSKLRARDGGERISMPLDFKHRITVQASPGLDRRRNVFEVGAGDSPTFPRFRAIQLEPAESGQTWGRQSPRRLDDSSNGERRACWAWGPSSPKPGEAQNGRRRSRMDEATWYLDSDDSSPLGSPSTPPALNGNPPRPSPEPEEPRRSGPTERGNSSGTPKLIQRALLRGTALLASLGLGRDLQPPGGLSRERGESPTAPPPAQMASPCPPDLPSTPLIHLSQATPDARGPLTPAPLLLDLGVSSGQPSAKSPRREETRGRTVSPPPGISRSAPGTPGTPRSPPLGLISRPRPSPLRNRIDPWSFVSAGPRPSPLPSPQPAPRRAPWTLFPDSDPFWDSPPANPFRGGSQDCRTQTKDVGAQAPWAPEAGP

HIV-1 = settings: in vivo model of HIV-1 infection; cited from earlier work
Rab7 = Rab7 (Homo sapiens (Human), UniProt P51149); test: Proteomic analyses of human monocyte-derived macrophages (Rab7); assay type: cell-based; settings: HIV-1 infected MDM
Source text: FIG. 7 (top) is a schematic of a proteomic analysis.
FIG. 8 is a photograph from a Western blot validation for Rab7a. Rab7A (Protein KB) is a key regulator in endolysosomal trafficking. It governs early-to-late endosomal maturation, microtubule minus-end as well as plus-end directed endosomal migration and positioning, and endosome-lysosome transport.
(§1) Higher plasma drug levels correspond to lowest viral load.

[3] = tested on: Rab 7 late endosomal compartment; test: Rab studies: nanoART drug levels in endosomal compartments; assay type: cell-based
Procedure: FIG. 25 is a graph showing that Compound AH is able to sustain the presence of atazanavir/ritonavir nanoART in late endosomes. Concentrations of 1 and 10 ng/mL of Compound AH increases drug levels for more than 10 days in these compartments. This is significant and reproducible. […] Thus more of the drug is present in there for longer time periods, boosting efficacy and leading to reduction of residual virus.
The Rab 7 compartment increased marked in size and expression (protein content) as a result of HIV infection. […] That is also where anti-HIV proteases work and where their sites of actions lie. […] This signals that the combination has eliminated or nearly so, the ability of virus to assemble in this compartment.

HIV-1 ADA = test: HIV-1 infection model in humanized mice; assay type: in vivo; settings: nanoART 6 weeks s.c.; Compound AH 10 mg/kg i.p. once daily during final two weeks
Procedure: The MLK inhibitor Compound AH was used in test with an animal model for HIV-1 infection. Specifically, 22 week old humanized mice (NOD/scidIL-2Rγc^null (NSG) mice stably engrafted with human CD34+ hematopoeitic stem cells were infected with HIV-1 ADA (Gorantla et al., J. Virol. 81:2700-2712, 2007). The mice were then treated with the nanoformulated antiretroviral therapy comprising atazanavir and ritonavir (nanoART) for 6 weeks by s.c. injections (6×/week). During the final two weeks, the animals also received the MLK-3 inhibitor Compound AH by once daily injection (10 mg/kg i.p.). Viral RNA load was measured over time in plasma from these mice, and productively infected cells were counted in tissues harvested from animals at sacrifice (including lymph node (FIG. 4) and spleen (FIG. 5)).
Further, starting at 10 weeks post infection, when the mice were at the peak of their viral load (VL) the MLK-3 inhibitor Compound AH was administered daily and the nanoART was administered weeks for three weeks. Peripheral VL ratio of human CD4+ and CD8+ T lymphocyte, drug levels in plasma and organs and pathological changes in lymphoid and brain tissues were investigated.
as §1

Human monocytes = test: Tat-assays: Tat-induced cytokine and chemokine production in human monocytes (Luminex); assay type: cell-based; settings: 50 nM HIV-1 Tat, 8 hours
Procedure: Human monocytes were isolated from freshly collected whole blood using CD14 immunomagnetic beads (Miltenyi-Biotec). Cells were then plated in 24-well plates at 5×10^4 cells/well in RPMI-1640 culture medium supplemented with 10% fetal bovine serum (FBS). The specified compounds were then added to the cultures at the indicated concentrations (100, […], 1000 nM); in control wells, no compound was added. 30 min later, HIV-1 Tat was added to a final concentration of 50 nM the cells were incubated for 8 hours (in control wells, nothing was added [NT]). Cell supernatants were then collected, centrifuged 15 min at 13000 rpm to remove debris, transferred to new microcentrifuge tubes and frozen at −20° C. A Luminex bead array assay was then performed, for the indicated chemokines and cytokines. Results were measured in triplicate or quadruplicate, and data are presented as mean values; error bars denote the standard deviation. Note that similar results were obtained with monocytes derived from multiple (n>5) different donors, as well as in terminally differentiated monocyte-derived macrophages (data not shown due to space limitations). *:p<0.05; one-way ANOVA with Bonferroni's correction (when compared to Tat only control). See FIG. 11 (tat-induced cytokine production) and FIG. 12 (tat-induced chemokine production).

MOG35-55 EAE mice = test: MOG35-55 EAE model; assay type: in vivo
Source text: Hippocampal synaptic injury in MOG35-55 EAE mice correlates with microglial activation and may occur independent of myelin loss. […] Protective effects in EAE hippocampal gray matter appear dissociable from those in the spinal cord. Many interventions targeting microglial function affect EAE motor deficits and the spinal cord inflammation that those largely reflect.

Tat = Tat (Human immunodeficiency virus type 1 group M subtype B (isolate HXB2) (HIV-1), UniProt P04608); test: Tat injection model, synapse protection and neuroinflammation (FIGS. 10-24); assay type: in vivo
Sequence of Tat (P04608 whole entry, looked up): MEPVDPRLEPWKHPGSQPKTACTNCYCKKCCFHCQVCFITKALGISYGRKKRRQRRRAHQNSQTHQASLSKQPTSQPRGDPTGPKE
Procedure: FIG. 19 is a group of photographs showing IHC synapse protection. Map2 staining 28 days post injection at the injection site. Pre/continuous treatment with Compound AH at 10 mg/kg i.p. q 12, 9 μg of Tat injected at 80 nL/min. The same Compound AH/Tat treatment paradigm was used in FIGS. 20-24.
(FIGS. 10-24). The compound is a selectively non-selective inhibitor for a subset of kinases that have pathogenetic roles for activation of immune effector cells with damage to target cells (neurons, myocytes, pancreatic acinar cells) in both central and peripheral degenerative diseases with autoimmune components.

[4] = Standard murine pharmacokinetic model (plasma and brain AUC); assay type: in vivo; settings: CL57 BL/6 mice, single IV injection 10 mg/kg, brain homogenate
Procedure: Several compounds disclosed herein were evaluated in a standard murine pharmacokinetic model. […] Three mice in each group were used for blood and brain collection at each time point. […] The brain of each animal was collected after the final blood collection. The whole tissue was harvested, excised and rinsed by saline, dried by filter paper, and then placed into one tube per tissue per animal. All samples were stored at −20° C. until bioanalysis. Compound concentrations in plasma and brain homogenate were determined using a high performance liquid chromatography/mass spectrometry (HPLC/MS/MS) method (Agilent 1100 series HPLC, AB Inc. API4000 triple-quadrupole with an ESI interface and Analyst 1.4 software). Results in the form of area under the time-versus-concentration curve (AUC) are given below in Table 10.

MLK3 [5] = target: MLK3 (Homo sapiens (Human), UniProt Q16584); test: Radiometric filter plate MLK3 assay; assay type: biochemical; settings: read-out: MK3 IC50
Sequence of MLK3 (Homo sapiens (Human), UniProt Q16584) (Q16584 whole entry): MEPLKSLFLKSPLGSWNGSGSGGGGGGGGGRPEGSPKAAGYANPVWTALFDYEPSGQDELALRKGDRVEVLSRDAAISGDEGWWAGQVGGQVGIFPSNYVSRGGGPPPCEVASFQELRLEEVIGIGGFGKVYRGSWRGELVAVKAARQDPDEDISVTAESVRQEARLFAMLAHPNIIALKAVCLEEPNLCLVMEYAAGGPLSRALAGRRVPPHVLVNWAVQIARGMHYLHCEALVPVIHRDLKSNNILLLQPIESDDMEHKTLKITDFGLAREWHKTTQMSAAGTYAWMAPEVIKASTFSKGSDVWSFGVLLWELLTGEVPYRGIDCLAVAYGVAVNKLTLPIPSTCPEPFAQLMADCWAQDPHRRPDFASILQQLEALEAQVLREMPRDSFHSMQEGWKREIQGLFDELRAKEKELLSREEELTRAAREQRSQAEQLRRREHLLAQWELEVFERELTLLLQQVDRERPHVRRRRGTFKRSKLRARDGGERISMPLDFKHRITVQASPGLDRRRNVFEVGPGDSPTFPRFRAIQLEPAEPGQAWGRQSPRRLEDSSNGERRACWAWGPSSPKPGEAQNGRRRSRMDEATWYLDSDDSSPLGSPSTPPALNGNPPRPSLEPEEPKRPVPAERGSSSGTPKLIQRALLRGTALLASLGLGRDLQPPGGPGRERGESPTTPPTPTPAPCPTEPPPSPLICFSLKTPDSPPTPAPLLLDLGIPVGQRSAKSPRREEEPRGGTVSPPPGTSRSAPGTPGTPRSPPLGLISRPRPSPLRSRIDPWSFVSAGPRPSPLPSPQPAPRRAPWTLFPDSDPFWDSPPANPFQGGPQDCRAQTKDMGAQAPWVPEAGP
Procedure: After a twenty minute incubation, the reactions were washed through filter plates and read on a scintillation counter. Results are shown in Table 9 below, in which +++ indicates ≤0.1 μM, ++ indicates >0.1 μM and ≤1 μM, and + indicates >1 μM.

[6] = 2 μM cold ATP (Km), 1 μM inactive MKK7b, twenty minute incubation

SMILES: CCSCc1ccc2c(c1)c1c3c(c4c5cc(CSCC)ccc5n5c4c1n2[C@H]1C[C@](O)(C(=O)OC)[C@]5(C)O1)CNC3=O (relative stereo) [CEP1347, 3,9-bis[(ethylthio)methyl]-(8R*,9S*, 11S*)-(−)-9-hydroxy-9-methoxycarbonyl-8-methyl-2,3,9,10-tetrahydro-8,11-epoxy-1H,8H, 11H-2,7b,11a-triazadibenzo(a,g)cycloocta(cde)trinden-1-one]
protection of neurons from lethal effects of HIV-1 gp120 [1]: can protect primary rat hippocampal neurons as well as dorsal root ganglion neurons
Tat and gp120 induced autophosphorylation of MLK3 (MLK3 [2]): abolished
neuroprotection in vivo (HIV-1): neuroprotective

SMILES: CN1CCN(Cc2ccc(-c3cnc4[nH]cc(-c5ccc6[nH]ccc6c5)c4c3)cc2)CC1 [Compound AH]
Rab7 protein regulation (Rab7): induced the RAS-related GTP-binding protein Rab7
time for which atazanavir/ritonavir nanoART drug levels in late endosomes are increased ([3]; 1 and 10 ng/mL of Compound AH, FIG. 25): more than 10 days
drug levels in Rab compartments ([3]; Compound AH induction): general increase in drug levels was seen in all Rab compartments
HIV-1 viral load (HIV-1 ADA): modest reducing in HIV-1 viral load
tat-induced cytokine production (Human monocytes; FIG. 11): blocks tat-induced cytokine production
tat-induced chemokine production (Human monocytes; FIG. 12): blocks tat-induced chemokine production
microglial activation in EAE hippocampus (MOG35-55 EAE mice; EAE hippocampus): attenuates microglial activation
synaptic structure in EAE hippocampus (MOG35-55 EAE mice; EAE hippocampus): protects synaptic structure
EAE motor deficits (MOG35-55 EAE mice; treatment at onset of clinical disease): no effect on EAE motor deficits
neuroprotection to the synapse (Tat; Compound AH 10 mg/kg i.p. q 12, 9 μg of Tat injected): provides neuroprotection to the synapse
neuroinflammation (Tat; FIGS. 10-24): anti-neuroinflammatory

SMILES: COc1cc(-c2cnc3[nH]cc(-c4ccc5[nH]ccc5c4)c3c2)cc(OC)c1OC [Example 1, 3-(1H-indol-5-yl)-5-(3,4,5-trimethoxyphenyl)-1H-pyrrolo[2,3-b]pyridine]
AUC Brain [4]: + (+ indicates ≥500)

SMILES: Nc1ccc(-c2cnc3[nH]cc(-c4ccc5[nH]ccc5c4)c3c2)cn1 [Example 4, 5-(3-(1H-indol-5-yl)-1H-pyrrolo[2,3-b]pyridin-5-yl)pyridin-2-amine]
IC50 (MLK3 [5]; [6]): < 0.1 µM
AUC Brain [4]: − (− indicates <500)

SMILES: Nc1ncc(-c2cnc3[nH]cc(-c4ccc5[nH]ccc5c4)c3c2)cn1 [Example 9, 5-(3-(1H-indol-5-yl)-1H-pyrrolo[2,3-b]pyridin-5-yl)pyrimidin-2-amine]
IC50 (MLK3 [5]; [6]): < 0.1 µM
AUC Brain [4]: + (+ indicates ≥500)

SMILES: COc1cc(-c2cnc3[nH]cc(-c4cnc(N)nc4)c3c2)cc(OC)c1OC [Example 17, 5-(5-(3,4,5-trimethoxyphenyl)-1H-pyrrolo[2,3-b]pyridin-3-yl)pyrimidin-2-amine]
IC50 (MLK3 [5]; [6]): < 0.1 µM
AUC Brain [4]: − (− indicates <500)

SMILES: CN1CCN(Cc2ccc(-c3cnc4[nH]cc(-c5ccc6[nH]ccc6c5)c4c3)cc2)CC1 [Example 32, 3-(1H-indol-5-yl)-5-(4-((4-methylpiperazin-1-yl)methyl)phenyl)-1H-pyrrolo[2,3-b]pyridine]
AUC Brain [4]: + (+ indicates ≥500)

Next, values leading:

IC50 (MLK3 [5]; [6]): < 0.1 µM
AUC Brain [4]: − (− indicates <500)
SMILES: COc1cc(-c2cnc3[nH]cc(-c4ccc(N)nc4)c3c2)cc(OC)c1OC [Example 18, 5-(5-(3,4,5-trimethoxyphenyl)-1H-pyrrolo[2,3-b]pyridin-3-yl)pyridin-2-amine]

IC50 (MLK3 [5]; [6]): < 0.1 µM
SMILES: CC(C)CC(=O)N1CCN(Cc2ccc(-c3cnc4[nH]cc(-c5ccc6[nH]ccc6c5)c4c3)cc2)CC1 [Example 204]

IC50 (MLK3 [5]; [6]): < 0.1 µM
SMILES: O=C1CCC(C(=O)N2CCN(Cc3ccc(-c4cnc5[nH]cc(-c6ccc7[nH]ccc7c6)c5c4)cc3)CC2)N1 (stereo not shown) [Example 205]

IC50 (MLK3 [5]): 0.1 to 1 µM
SMILES: FC(F)(F)CN1CCN(Cc2ccc(-c3cnc4[nH]cc(-c5ccc6[nH]ccc6c5)c4c3)cc2)CC1 [Example 207, 3-(1H-indol-5-yl)-5-(4-((4-(2,2,2-trifluoroethyl)piperazin-1-yl)methyl)phenyl)-1H-pyrrolo[2,3-b]pyridine]

IC50 (MLK3 [5]): 0.1 to 1 µM
SMILES: CN1CCN(Cc2ccc(-c3cnc4[nH]c(=O)n(-c5ccc6[nH]ccc6c5)c4n3)cc2)CC1 [Example 212, 1-(1H-Indol-5-yl)-6-[4-(4-methyl-piperazin-1-ylmethyl)-phenyl]-1,3-dihydro-imidazo[4,5-b]pyrazin-2-one]
